The values below come from paper PMC9825998 (The Journal of Physiology, 2022).

Assay [1] deals with T1, Kir6.2‐K39A+SUR1 (Homo sapiens, UniProt Q14654, K39A).
T1 construct: expressed in transfected cells; host or cells: HEK293T
Also noted: method as in previous submission of this manuscript. To be noted: construct not specified further, quoted by Referee #4, ref previous submission of this manuscript; cited from earlier work.

For assay [2], the target named is T2, Kir6.2‐K39R+SUR1 (Homo sapiens, UniProt Q14654, K39R).
T2 construct: expressed in transfected cells; host or cells: HEK293T
Also noted: method as in previous submission of this manuscript. To be noted: construct not specified further, quoted by Referee #4, ref previous submission of this manuscript; cited from earlier work.

For assay [3], the target named is T1, Kir6.2‐K39A+SUR1. Description: Nucleotide inhibition of KATP currents in inside-out patches from HEK293T cells, Hill fit. It counts as biochemical. The protocol:
(§1) Human Kir6.2 and SUR1 were subcloned into pCGFP_EU [green fluorescent proten (GFP)‐tagged constructs] and pcDNA4/TO, respectively. Site‐directed mutagenesis and amber stop codons were introduced using the QuikChange XL system (Stratagene, San Diego, CA, USA) and verified by sequencing (DNA Sequencing and Services, Dundee, UK), as previously described (Usher et al., [2020]). HEK293T cells were grown in Dulbecco's modified Eagle's medium (DMEM; Sigma) with the addition of 10% fetal bovine serum, 100 U ml^−1 penicillin and 100 μg ml^−1 streptomycin (Thermo Fisher Scientific; Waltham, MA, USA) at 37°C, 5:95 CO2:air. Cells were seeded in T25 flasks for 24 h, before transfection with TransIT‐LT1 (Mirus Bio LLC, Madison, WI, USA). Protein expression and trafficking to the plasma membrane were optimized by including 300 μM tolbutamide in the transfection media (Yan et al., [2007]). 3‐(6‐Acetylnaphthalen‐2‐ylamino)‐2‐aminopropanoic acid (ANAP)‐tagged Kir6.2 constructs were cultured in the presence of 20 μM ANAP (free acid; AsisChem, Waltham, MA, USA), and 48 h post‐transfection the cells were re‐plated onto either poly‐D‐lysine‐coated glass‐bottomed FluoroDishes (FD35‐PDL‐100; World Precision Instruments) or poly‐L‐lysine‐coated 35 mm Petri dishes (Corning). pCDNA4/TO and pANAP were obtained from Addgene. peRF1‐E55D (Homo sapiens) and pCGFP_EU (Aequorea victoria) were kind gifts from the Chin Laboratory (MRC Laboratory of Molecular Biology, Cambridge, UK) and Gouaux Laboratory (Vollum Institute, Portland, OR, USA), respectively.
(§2) Extracellular (pipette) solutions contained (mM): 140 KCl, 1 EGTA and 10 Hepes (pH adjusted to 7.3 with KOH). The intracellular (bath) solutions contained (mM): 140 KCl, 1 EDTA, 1 EGTA, 10 Hepes (pH adjusted to 7.3 with KOH). Inside‐out patches were excised from transfected HEK293T cells using borosilicate glass pipettes (GC150F‐15; Harvard Apparatus, Holliston, MA, USA) pulled to a resistance of 1–3 MΩ. Data were acquired at a holding potential of −60 mV using an Axopatch 200B amplifier and a Digidata 1322A digitizer run through pClamp 9 software (Molecular Devices, San Jose, CA, USA).

Assay [4] deals with T2, Kir6.2‐K39R+SUR1. Described as above. In kind it is biochemical. As to the method:
as §1, §2

The next assay concerns the target T3, Kir6.2‐K39E+SUR1 (Homo sapiens, UniProt Q14654, K39E).
T3 construct: expressed in transfected cells; host or cells: HEK293T
Described as above. In kind it is biochemical. As to the method: as §1, §2

For a further assay, the target named is T4, Kir6.2+SUR1 (Homo sapiens, UniProt Q14654).
T4 construct: expressed in transfected cells; host or cells: HEK293T
Described as above. In kind it is biochemical. As to the method:
as §1, §2

Like-named read-outs stand apart in the source and are kept apart here.

T2 sequence (Q14654 whole entry K39R): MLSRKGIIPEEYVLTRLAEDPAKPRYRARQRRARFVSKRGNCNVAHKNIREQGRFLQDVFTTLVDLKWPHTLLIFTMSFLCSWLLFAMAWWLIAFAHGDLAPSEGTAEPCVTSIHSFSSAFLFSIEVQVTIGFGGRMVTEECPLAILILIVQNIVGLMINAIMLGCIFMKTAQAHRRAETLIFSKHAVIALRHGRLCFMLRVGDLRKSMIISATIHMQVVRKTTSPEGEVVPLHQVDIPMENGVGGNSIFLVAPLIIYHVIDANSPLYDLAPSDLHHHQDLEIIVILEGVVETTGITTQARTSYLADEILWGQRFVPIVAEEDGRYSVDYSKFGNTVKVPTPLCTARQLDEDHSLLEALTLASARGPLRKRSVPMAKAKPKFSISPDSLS
T2 sequence (Q09428 whole entry partner): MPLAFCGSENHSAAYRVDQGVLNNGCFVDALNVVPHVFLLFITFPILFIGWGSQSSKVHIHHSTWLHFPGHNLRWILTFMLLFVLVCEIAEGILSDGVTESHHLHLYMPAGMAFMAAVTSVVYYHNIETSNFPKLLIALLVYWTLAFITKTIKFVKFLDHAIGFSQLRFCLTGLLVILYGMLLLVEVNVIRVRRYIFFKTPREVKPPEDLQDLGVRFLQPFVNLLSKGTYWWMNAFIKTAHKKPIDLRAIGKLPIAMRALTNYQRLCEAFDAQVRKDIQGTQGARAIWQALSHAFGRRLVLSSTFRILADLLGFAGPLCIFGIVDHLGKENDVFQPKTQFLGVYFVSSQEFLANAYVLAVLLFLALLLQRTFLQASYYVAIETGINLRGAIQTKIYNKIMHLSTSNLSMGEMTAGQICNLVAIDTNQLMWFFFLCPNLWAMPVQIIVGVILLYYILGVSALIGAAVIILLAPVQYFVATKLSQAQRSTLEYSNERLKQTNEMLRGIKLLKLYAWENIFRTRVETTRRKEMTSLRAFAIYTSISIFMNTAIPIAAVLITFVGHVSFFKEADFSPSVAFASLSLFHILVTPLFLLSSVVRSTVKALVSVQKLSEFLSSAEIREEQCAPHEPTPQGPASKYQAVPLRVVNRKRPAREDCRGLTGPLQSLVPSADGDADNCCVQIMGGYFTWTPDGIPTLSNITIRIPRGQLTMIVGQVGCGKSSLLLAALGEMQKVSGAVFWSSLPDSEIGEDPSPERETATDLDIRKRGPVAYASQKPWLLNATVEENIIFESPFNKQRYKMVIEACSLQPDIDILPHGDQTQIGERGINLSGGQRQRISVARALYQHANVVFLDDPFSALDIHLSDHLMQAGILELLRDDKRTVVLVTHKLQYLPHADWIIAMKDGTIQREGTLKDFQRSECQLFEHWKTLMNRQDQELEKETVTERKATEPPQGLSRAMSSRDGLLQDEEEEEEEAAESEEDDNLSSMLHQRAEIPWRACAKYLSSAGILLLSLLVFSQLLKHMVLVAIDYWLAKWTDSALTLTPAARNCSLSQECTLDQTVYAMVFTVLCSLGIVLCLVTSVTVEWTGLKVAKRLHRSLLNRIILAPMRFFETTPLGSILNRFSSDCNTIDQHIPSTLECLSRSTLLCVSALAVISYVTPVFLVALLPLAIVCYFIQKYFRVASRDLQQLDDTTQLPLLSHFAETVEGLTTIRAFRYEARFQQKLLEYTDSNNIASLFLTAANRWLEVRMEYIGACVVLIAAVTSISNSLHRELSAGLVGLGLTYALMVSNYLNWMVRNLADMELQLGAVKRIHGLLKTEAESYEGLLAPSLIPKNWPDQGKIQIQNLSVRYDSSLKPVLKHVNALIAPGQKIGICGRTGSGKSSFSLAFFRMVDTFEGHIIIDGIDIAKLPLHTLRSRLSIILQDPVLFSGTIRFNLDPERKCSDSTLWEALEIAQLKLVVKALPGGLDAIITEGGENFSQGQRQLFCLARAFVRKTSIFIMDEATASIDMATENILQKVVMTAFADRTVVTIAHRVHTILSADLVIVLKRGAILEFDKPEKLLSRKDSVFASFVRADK
T1 sequence (Q14654 whole entry K39A): as the sequence (Q14654 whole entry K39R) above, with R39A counted along it
T1 sequence (Q09428 whole entry partner): as the sequence (Q09428 whole entry partner) above
T3 sequence (Q14654 whole entry K39E): as the sequence (Q14654 whole entry K39R) above, with R39E counted along it
T3 sequence (Q09428 whole entry partner): as the sequence (Q09428 whole entry partner) above
T4 sequence (Q14654 whole entry): as the sequence (Q14654 whole entry K39R) above, with R39K counted along it
T4 sequence (Q09428 whole entry partner): as the sequence (Q09428 whole entry partner) above

The term IC50 denotes the concentration at which inhibition is half-maximal. Turning to `Nc1ncnc2c1ncn2[C@@H]1O[C@H](COP(=O)(O)OP(=O)(O)OP(=O)(O)O)[C@H]2OC3(O[C@H]21)C([N+](=O)[O-])=CC(=[N+]([O-])[O-])C=C3[N+](=O)[O-]` (stereo partly drawn) [TNP‐ATP, trinitrophenyl adenosine triphosphate], the IC50 on Kir6.2‐K39A+SUR1 [1] was 13.2 µM; at Kir6.2‐K39R+SUR1 [2], 2.62 µM; on Kir6.2‐K39A+SUR1 [3], 11 µM; on Kir6.2‐K39R+SUR1 [4], 2.48 µM; against Kir6.2‐K39E+SUR1, 11.8 µM; at Kir6.2+SUR1 it was 1.08 µM.
